Experimental data from patent US10947252B2, “Inhibitors of KEAP1-Nrf2 protein-protein interaction” (Janssen Pharmaceutica NV, priority 2018, dated 2021).
pEC50, pKd: −log10 of the molar value.

Columns and labels:
[1] = target: Kelch domain of human KEAP1 (321-624 aa) (Homo sapiens (Human), UniProt Q14145); test: KEAP1 KELCH ThermoFluor binding assay; conditions: KEAP Kelch […], 1,8-ANS, pH 7.0, average of results obtained, read-out: Tf Kd;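 also: Ligand-induced melting temperature shift of E. coli-expressed KEAP1 Kelch protein, Kd estimated from concentration-response curves of ΔTm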
[2] = system: Glo-Response ARE-luc2P HEK293 cell line; test: ARE luciferase reporter cell-based assay; conditions: Homo sapiens, HEK293, 24 h, average of results obtained;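 also: luciferase signal tracks Nrf2 activation of the ARE once compounds disrupt KEAP1-Nrf2 binding, read with One-Glo reagent, DMSO serving as low control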

Chain of Kelch domain of human KEAP1 (321-624 aa) (Q14145 321-624): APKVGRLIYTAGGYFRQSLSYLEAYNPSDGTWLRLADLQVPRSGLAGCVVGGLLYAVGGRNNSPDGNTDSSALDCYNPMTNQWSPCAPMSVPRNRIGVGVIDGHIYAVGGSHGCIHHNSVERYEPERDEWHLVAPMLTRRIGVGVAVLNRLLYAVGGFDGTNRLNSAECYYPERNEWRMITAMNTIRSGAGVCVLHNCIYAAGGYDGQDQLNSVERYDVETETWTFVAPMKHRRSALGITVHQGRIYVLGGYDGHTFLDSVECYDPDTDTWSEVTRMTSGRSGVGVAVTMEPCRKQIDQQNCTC

| SMILES | pKd [1] | pEC50 [2] |
| --- | --- | --- |
| Cc1ccc([C@@H](c2ccn3c(C(F)(F)F)nnc3c2C)C(C)(C)C(=O)O)cc1CN1CC2(CCOCC2)Oc2nc(OC(C)CN3CCCCC3)c(C)cc2S1(=O)=O (stereo in doubt) [Example 600, (*S)-2,2-Dimethyl-3-(4-methyl-3-((8′-methyl-1′,1′-dioxido-7′-((1-(piperidin-1-yl)propan-2-yl)oxy)-2,3,5,6-tetrahydrospiro[pyran-4,4′-pyrido[2,3-b][1,4,5]oxathiazepin]-2′,(3′H)-yl)methyl)phenyl)-3-(8-methyl-3-(trifluoromethyl)-[1,2,4]triazolo[4,3-a]pyridine-7-yl)propanoic Acid] | > 9.00 | 8.34 |
| Cc1ccc([C@@H](c2ccn3c(C(F)F)nnc3c2C)C(C)(C)C(=O)O)nc1CN1CC2(CC2)Oc2nc(OCCN3CCCC3)c(C)cc2S1(=O)=O (single isomer, unassigned) [Example 358, (*S)-3-(3-(Difluoromethyl)-8-methyl-[1,2,4]triazolo[4,3-a]pyridin-7-yl)-2,2-dimethyl-3-(5-methyl-6-((8′-methyl-1′,1′-dioxido-7′-(2-(pyrrolidin-1-yl)ethoxy)spiro[cyclopropane-1,4′-pyrido[2,3-b][1,4,5]oxathiazepin]-2′(3′H)-yl)methyl)pyridin-2-yl)propanoic Acid] | 5.35 | 7.63 |
| Cc1ccc([C@@H](CC(=O)O)c2ccc3c(nnn3C3CC3)c2C)cc1CN1C[C@H]2CCCCN2c2ncccc2S1(=O)=O (single isomer, unassigned) [Example 213, (*R)-3-(1-Cyclopropyl-4-methyl-1H-benzo[d][1,2,3]triazol-5-yl)-3-(3-(((*R)-5,5-dioxido-7,7a,8,9,10,11-hexahydro-6H-dipyrido[2,1-d:2′,3′-f][1,2,5]thiadiazepin-6-yl)methyl)-4-methylphenyl)propanoic Acid] | > 9.00 | 8.10 |
| Cc1ccc([C@@H](c2ccn3c(C(F)F)nnc3c2C)C(C)(C)C(=O)O)nc1CN1CC2(COC2)Oc2ncccc2S1(=O)=O (single isomer, unassigned) [Example 610, (*S)-3-(3-(Difluoromethyl)-8-methyl-[1,2,4]triazolo[4,3-a]pyridin-7-yl)-3-(6-((1′,1′-dioxidospiro[oxetane-3,4′-pyrido[2,3-b][1,4,5]oxathiazepin]-2′(3′H)-yl)methyl)-5-methylpyridin-2-yl)-2,2-dimethylpropanoic Acid] | > 9.00 | 8.35 |
| Cc1ccc([C@@H](c2ccn3c(C(F)(F)F)nnc3c2C)C(C)(C)C(=O)O)cc1CN1C[C@@H]2CCCCN2c2ncc(C#N)cc2S1(=O)=O (single isomer, unassigned) [Example 424, (*S)-3-(3-(((*S)-3-cyano-5,5-dioxido-7,7a,8,9,10,11-hexahydro-6H-dipyrido[2,1-d:2′,3′-f][1,2,5]thiadiazepin-6-yl)methyl)-4-methylphenyl)-2,2-dimethyl-3-(8-methyl-3-(trifluoromethyl)-[1,2,4]triazolo[4,3-a]pyridin-7-yl)propanoic Acid] | > 9.00 | 8.78 |
| Cc1cnc2c(c1)S(=O)(=O)N(Cc1cc([C@H](c3ccn4c(C(F)(F)F)nnc4c3C)C(C)(C)C(=O)O)ccc1C)C[C@]1(CCOC1)O2 (single isomer, unassigned) [Example 387, (*R)-2,2-Dimethyl-3-(4-methyl-3-(((*S)-8′-methyl-1′,1′-dioxido-4,5-dihydro-2H-spiro[furan-3,4′-pyrido[2,3-b][1,4,5]oxathiazepin]-2′(3′H)-yl)methyl)phenyl)-3-(8-methyl-3-(trifluoromethyl)-[1,2,4]triazolo[4,3-a]pyridin-7-yl)propanoic Acid] | 5.91 | 6.57 |
| Cc1ccc(C(CC(=O)O)c2ccc3c(nnn3CC3CC3)c2C)cc1CN1CC2(CC2)N(C)c2ncccc2S1(=O)=O (centres unmarked) [Example 75, 3-(1-(Cyclopropylmethyl)-4-methyl-1H-benzo[d][1,2,3]triazol-5-yl)-3-(4-methyl-3-((5′-methyl-1′,1′-dioxido-5′H-spiro[cyclopropane-1,4′-pyrido[2,3-f][1,2,5]thiadiazepin]-2′(3′H)-yl)methyl)phenyl)propanoic Acid] | > 9.00 | 7.85 |
